Data as given in patent publication US11505543B2, “4-oxo-3,4-dihydroquinazoline compounds as inhibitors of human immunodeficiency virus replication” (VIIV HEALTHCARE UK (NO.5) LIMITED, priority 2018, dated 2022).

Assays:
[1] = system: recombinant NL4-3 virus (nef section replaced with Renilla luciferase gene) in MT-2 cells; test: HIV cell culture assay (antiviral activity, luciferase readout); format: cell-based; conditions: Renilla, NL43, MT-2 cells infected for 4-5 days with recombinant NL4-3 Renilla luciferase virus, serial dilutions of compound
Method in brief: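 EC50 was derived by median-effect curve fitting of luciferase activity. The signal comes from MT-2 cells infected for 4–5 days with 293T-produced NL4-3 reporter virus, nef partly replaced by Renilla luciferase, in the presence of serially diluted compound.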

[2] = Compound cytotoxicity, XTT-based colorimetric assay; format: cell-based; conditions: human, uninfected MT2 cells, day 4, XTT
Method in brief: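 Run under the antiviral-assay protocol but without virus. Viability was read on day 4 and CC50 values were derived from the readout.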

Row | Compound | EC50 [1] [nM] | CC50 at 4 day [2] [nM]
1 | CCS(=O)(=O)c1ccccc1-c1ccc2c(=O)n(-c3ccc(Cl)c4c(NS(C)(=O)=O)nn(C)c34)c([C@H](Cc3cc(F)cc(F)c3)NC(=O)Cn3nc(C(F)F)c4c3C(F)(F)[C@@H]3C[C@H]43)nc2c1 (atropisomer, axis not shown; (aR)) [Example 119, N-((S)-1-(3-(4-chloro-1-methyl-3-(methylsulfonamido)-1H-indazol-7-yl)-7-(2-(ethylsulfonyl)phenyl)-4-oxo-3,4-dihydroquinazolin-2-yl)-2-(3,5-difluorophenyl)ethyl)-2-((3bS,4aR)-3-(difluoromethyl)-5,5-difluoro-3b,4,4a,5-tetrahydro-1H-cyclopropa[3,4]cyclopenta[1,2-c]pyrazol-1-yl)acetamide] | 0.1 | > 500
2 | CC(C)S(=O)(=O)c1ccccc1-c1ccc2c(=O)n(-c3ccc(Cl)c4c(NS(C)(=O)=O)nn(C)c34)c([C@H](Cc3cc(F)cc(F)c3)NC(=O)Cn3nc(C(F)F)c4c3C(F)(F)[C@@H]3C[C@H]43)nc2c1 (atropisomer, axis not shown; (aR)) [Example 120, N-((S)-1-(3-(4-chloro-1-methyl-3-(methylsulfonamido)-1H-indazol-7-yl)-7-(2-(isopropylsulfonyl)phenyl)-4-oxo-3,4-dihydroquinazolin-2-yl)-2-(3,5-difluorophenyl)ethyl)-2-((3bS,4aR)-3-(difluoromethyl)-5,5-difluoro-3b,4,4a,5-tetrahydro-1H-cyclopropa[3,4]cyclopenta[1,2-c]pyrazol-1-yl)acetamide] | 0.13 | > 500
3 | CCS(=O)(=O)c1cccc(-c2ccc3c(=O)n(-c4ccc(Cl)c5c(NS(C)(=O)=O)nn(C)c45)c([C@H](Cc4cc(F)cc(F)c4)NC(=O)Cn4nc(C(F)F)c5c4C(F)(F)[C@@H]4C[C@H]54)nc3c2)c1 (atropisomer, axis not shown; (aR)) [Example 121, N-((S)-1-(3-(4-chloro-1-methyl-3-(methylsulfonamido)-1H-indazol-7-yl)-7-(3-(ethylsulfonyl)phenyl)-4-oxo-3,4-dihydroquinazolin-2-yl)-2-(3,5-difluorophenyl)ethyl)-2-((3bS,4aR)-3-(difluoromethyl)-5,5-difluoro-3b,4,4a,5-tetrahydro-1H-cyclopropa[3,4]cyclopenta[1,2-c]pyrazol-1-yl)acetamide] | 0.11 | > 500
4 | CCCS(=O)(=O)c1cccc(-c2ccc3c(=O)n(-c4ccc(Cl)c5c(NS(C)(=O)=O)nn(C)c45)c([C@H](Cc4cc(F)cc(F)c4)NC(=O)Cn4nc(C(F)F)c5c4C(F)(F)[C@@H]4C[C@H]54)nc3c2)c1 (atropisomer, axis not shown; (aR)) [Example 122, N-((S)-1-(3-(4-chloro-1-methyl-3-(methylsulfonamido)-1H-indazol-7-yl)-4-oxo-7-(3-(propylsulfonyl)phenyl)-3,4-dihydroquinazolin-2-yl)-2-(3,5-difluorophenyl)ethyl)-2-((3bS,4aR)-3-(difluoromethyl)-5,5-difluoro-3b,4,4a,5-tetrahydro-1H-cyclopropa[3,4]cyclopenta[1,2-c]pyrazol-1-yl)acetamide] | 0.17 | > 500
5 | CC(C)S(=O)(=O)c1cccc(-c2ccc3c(=O)n(-c4ccc(Cl)c5c(NS(C)(=O)=O)nn(C)c45)c([C@H](Cc4cc(F)cc(F)c4)NC(=O)Cn4nc(C(F)F)c5c4C(F)(F)[C@@H]4C[C@H]54)nc3c2)c1 (atropisomer, axis not shown; (aR)) [Example 123, N-((S)-1-(3-(4-chloro-1-methyl-3-(methylsulfonamido)-1H-indazol-7-yl)-7-(3-(isopropylsulfonyl)phenyl)-4-oxo-3,4-dihydroquinazolin-2-yl)-2-(3,5-difluorophenyl)ethyl)-2-((3bS,4aR)-3-(difluoromethyl)-5,5-difluoro-3b,4,4a,5-tetrahydro-1H-cyclopropa[3,4]cyclopenta[1,2-c]pyrazol-1-yl)acetamide] | 0.15 | > 500
6 | CS(=O)(=O)Nc1nn(CC(F)F)c2c(-n3c([C@H](Cc4cc(F)cc(F)c4)NC(=O)Cn4nc(C(F)F)c5c4C(F)(F)[C@@H]4C[C@H]54)nc4cc(-c5ncccn5)ccc4c3=O)ccc(Cl)c12 (atropisomer, axis not shown; (aR)) [Example 124, N-((S)-1-(3-(4-chloro-1-(2,2-difluoroethyl)-3-(methylsulfonamido)-1H-indazol-7-yl)-4-oxo-7-(pyrimidin-2-yl)-3,4-dihydroquinazolin-2-yl)-2-(3,5-difluorophenyl)ethyl)-2-((3bS,4aR)-3-(difluoromethyl)-5,5-difluoro-3b,4,4a,5-tetrahydro-1H-cyclopropa[3,4]cyclopenta[1,2-c]pyrazol-1-yl)acetamide] | 0.058 | > 500
7 | Cc1nccnc1-c1ccc2c(=O)n(-c3ccc(Cl)c4c(NS(C)(=O)=O)nn(CC(F)F)c34)c([C@H](Cc3cc(F)cc(F)c3)NC(=O)Cn3nc(C(F)F)c4c3C(F)(F)[C@@H]3C[C@H]43)nc2c1 (atropisomer, axis not shown; (aR)) [Example 125, N-((S)-1-(3-(4-chloro-1-(2,2-difluoroethyl)-3-(methylsulfonamido)-1H-indazol-7-yl)-7-(3-methylpyrazin-2-yl)-4-oxo-3,4-dihydroquinazolin-2-yl)-2-(3,5-difluorophenyl)ethyl)-2-((3bS,4aR)-3-(difluoromethyl)-5,5-difluoro-3b,4,4a,5-tetrahydro-1H-cyclopropa[3,4]cyclopenta[1,2-c]pyrazol-1-yl)acetamide] | 0.054 | > 500
8 | Cc1nccnc1-c1ccc2c(=O)n(-c3ccc(Cl)c4c(NS(=O)(=O)C5CC5)nn(CC(F)F)c34)c([C@H](Cc3cc(F)cc(F)c3)NC(=O)Cn3nc(C(F)F)c4c3C(F)(F)[C@@H]3C[C@H]43)nc2c1 (atropisomer, axis not shown; (aR)) [Example 126, N-((S)-1-(3-(4-chloro-3-(cyclopropanesulfonamido)-1-(2,2-difluoroethyl)-1H-indazol-7-yl)-7-(3-methylpyrazin-2-yl)-4-oxo-3,4-dihydroquinazolin-2-yl)-2-(3,5-difluorophenyl)ethyl)-2-((3bS,4aR)-3-(difluoromethyl)-5,5-difluoro-3b,4,4a,5-tetrahydro-1H-cyclopropa[3,4]cyclopenta[1,2-c]pyrazol-1-yl)acetamide] | 0.052 | > 500
9 | O=C(Cn1nc(C(F)F)c2c1C(F)(F)[C@@H]1C[C@H]21)N[C@@H](Cc1cc(F)cc(F)c1)c1nc2cc(-c3ncccn3)ccc2c(=O)n1-c1ccc(Cl)c2c(NS(=O)(=O)C3CC3)nn(CC(F)F)c12 (atropisomer, axis not shown; (aR)) [Example 127, N-((S)-1-(3-(4-chloro-3-(cyclopropanesulfonamido)-1-(2,2-difluoroethyl)-1H-indazol-7-yl)-4-oxo-7-(pyrimidin-2-yl)-3,4-dihydroquinazolin-2-yl)-2-(3,5-difluorophenyl)ethyl)-2-((3bS,4aR)-3-(difluoromethyl)-5,5-difluoro-3b,4,4a,5-tetrahydro-1H-cyclopropa[3,4]cyclopenta[1,2-c]pyrazol-1-yl)acetamide] | 0.059 | > 500
10 | Cc1cc(C)nc(-c2ccc3c(=O)n(-c4ccc(Cl)c5c(NS(C)(=O)=O)nn(CC(F)F)c45)c([C@H](Cc4cc(F)cc(F)c4)NC(=O)Cn4nc(C(F)F)c5c4C(F)(F)[C@@H]4C[C@H]54)nc3c2)n1 (atropisomer, axis not shown; (aR)) [Example 128, N-((S)-1-(3-(4-chloro-1-(2,2-difluoroethyl)-3-(methylsulfonamido)-1H-indazol-7-yl)-7-(4,6-dimethylpyrimidin-2-yl)-4-oxo-3,4-dihydroquinazolin-2-yl)-2-(3,5-difluorophenyl)ethyl)-2-((3bS,4aR)-3-(difluoromethyl)-5,5-difluoro-3b,4,4a,5-tetrahydro-1H-cyclopropa[3,4]cyclopenta[1,2-c]pyrazol-1-yl)acetamide] | 0.069 | > 500
11 | Cc1cc(C)nc(-c2ccc3c(=O)n(-c4ccc(Cl)c5c(NS(=O)(=O)C6CC6)nn(CC(F)F)c45)c([C@H](Cc4cc(F)cc(F)c4)NC(=O)Cn4nc(C(F)F)c5c4C(F)(F)[C@@H]4C[C@H]54)nc3c2)n1 (atropisomer, axis not shown; (aR)) [Example 129, N-((S)-1-(3-(4-chloro-3-(cyclopropanesulfonamido)-1-(2,2-difluoroethyl)-1H-indazol-7-yl)-7-(4,6-dimethylpyrimidin-2-yl)-4-oxo-3,4-dihydroquinazolin-2-yl)-2-(3,5-difluorophenyl)ethyl)-2-((3bS,4aR)-3-(difluoromethyl)-5,5-difluoro-3b,4,4a,5-tetrahydro-1H-cyclopropa[3,4]cyclopenta[1,2-c]pyrazol-1-yl)acetamide] | 0.095 | > 500
12 | Cc1ncc(-c2ccc3c(=O)n(-c4ccc(Cl)c5c(NS(C)(=O)=O)nn(C)c45)c([C@H](Cc4cc(F)cc(F)c4)NC(=O)Cn4nc(C(F)F)c5c4C(F)(F)[C@@H]4C[C@H]54)nc3c2)cn1 (atropisomer, axis not shown; (aR)) [Example 130, N-((S)-1-(3-(4-chloro-1-methyl-3-(methylsulfonamido)-1H-indazol-7-yl)-7-(2-methylpyrimidin-5-yl)-4-oxo-3,4-dihydroquinazolin-2-yl)-2-(3,5-difluorophenyl)ethyl)-2-((3bS,4aR)-3-(difluoromethyl)-5,5-difluoro-3b,4,4a,5-tetrahydro-1H-cyclopropa[3,4]cyclopenta[1,2-c]pyrazol-1-yl)acetamide] | 0.03 | > 500
